Reference: patent publication US20240382471A1, “GLUCAGON-LIKE PEPTIDE-1 RECEPTOR MODULATORS AND USES THEREOF” (HEPAGENE THERAPEUTICS (HK) LIMITED, priority 2021, published 2024)

Tests used:
GLP1R [1] = biological target: T1, GLP1R (Homo sapiens, UniProt P43220); assay: GLP1R cAMP assay (HTRF cAMP detection, agonist activity); assay type: cell-based; set-up: host or cells: Flp-In-293; conditions: Flp-In-293-GLP1R cells, 30 min at 37° C., read-out: EC50 (nM) Assay 1
Protocol: GLP1R-mediated agonist activity was determined with a cell-based functional assay utilizing an HTRF (Homogeneous Time-Resolved Fluorescene) cAMP detection kit that measures CAMP levels in the cell. Reagents and equipment used in the assay are listed below, followed by the protocol.
• 1) Cell Line: Flp-In-293-GLP1R (constructed by Pharmaron Beijing Co., Ltd) • 2) Complete Medium: DMEM+10% FBS+1×Penicillin-Streptomycin+200 μg/mL HB • 3) Assay Buffer: 1×HBSS+20 mM HEPES+0.1% BSA+500 μM IBMX
• a) Seed Flpin-293-GLP1R cells at 20,000 cells/well into 384 well assay plate (6007680-50, PE) using complete medium. • b) Prepare 4×compound working solution with assay buffer. • c) Add 5 μL 4×compound working solution into cell plate, incubate 30 min at 37° C. • d) Dilute Eu-cAMP tracer (1/50) with lysis buffer and add 10 μl/well to assay plate. • e) Dilute Ulight-anti-cAMP (1/150) with lysis buffer and add 10 μl/well to assay plate. • f) Incubate 1 h at RT. • g) Read the plate at wavelengths of 665 nm and 615 nm on Envision 2105 plate reader.
(§1) • 3.1% Activity is calculated as follow:
% Activity=100−(Signalcmpd−SignalAve_PC)/(SignalAve_VC−SignalAve_PC)×100. • 3.2 Calculate EC50 and Plot effect-dose curve of cmpds:
Y=Bottom+(Top−Bottom)/(1+10^((Log EC50−X)*Hill Slope)) • X: log of agonist concentration; Y: % Activity.
Target sequence in this assay (P43220 24-463, species assumed): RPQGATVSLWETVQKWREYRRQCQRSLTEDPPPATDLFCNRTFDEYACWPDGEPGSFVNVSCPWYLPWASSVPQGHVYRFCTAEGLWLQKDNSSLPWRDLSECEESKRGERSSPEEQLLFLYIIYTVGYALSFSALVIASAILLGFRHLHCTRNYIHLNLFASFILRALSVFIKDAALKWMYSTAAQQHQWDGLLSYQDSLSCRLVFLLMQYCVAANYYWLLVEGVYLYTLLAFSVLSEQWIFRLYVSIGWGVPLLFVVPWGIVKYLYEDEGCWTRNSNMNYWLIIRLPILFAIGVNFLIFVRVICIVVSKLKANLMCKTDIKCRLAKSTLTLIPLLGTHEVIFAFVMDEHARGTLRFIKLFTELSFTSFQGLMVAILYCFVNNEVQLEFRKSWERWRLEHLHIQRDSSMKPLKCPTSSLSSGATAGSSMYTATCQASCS

GLP1R [2] = biological target: T1, GLP1R; assay: GLP1R/CRE-Luc luciferase reporter gene assay (agonist activity); assay type: cell-based; set-up: host or cells: HKE293 (so in the source); conditions: HKE293-Human GLP1R/CRE-luc cells, 5 h at 37° C., read-out: EC50 (nM) Assay 2
Protocol: GLP1R-mediated agonist activity was determined with a cell-based functional assay utilizing a britelite plus luciferase reporter gene assay system. The stable cell line overexpress GLP1R and target response element. The stimulation with GLP1R agonist results in the upregulation of intracellular cAMP, which regulate the activities of cAMP-response element binding protein (CREB) and CREB-Luc. Reagents and equipment used in the assay are listed below, followed by the protocol.
• 1) Cell Line: HKE293-Human GLP1R/CRE-luc • 2) Complete Medium: DMEM+10% FBS+1×Penicillin-Streptomycin+400 μg/mL G418
• a) Seed HKE293-Human GLP1R/CRE-luc cells at 20,000 cells/well into 384 well assay plate (6007680-50, PE) using complete medium and incubate overnight. • b) Prepare 6×compound working solution with Medium. • c) Add 5 μL 6×compound working solution into cell plate, incubate 5 h at 37° C. • d) Add 20 μl britelite plus Luciferase Assay Reagent into each well of 384-well assay plate. • e) Record the luminescence value on Envision plate reader.
as §1
Target sequence in this assay (P43220 24-463): as the sequence (P43220 24-463, species assumed) above
% Activity=(Signalcmpd−SignalAve_VC)/(SignalAve_PC−SignalAve_VC)×100. • 3.2 Calculate EC50 and Plot effect-dose curve of cmpds:
Y=Bottom+(Top−Bottom)/(1+10^((Log EC50−X)*HillSlope)) • X: log of agonist concentration; Y: % Activity.

SMILES | EC50 (GLP1R [1]) [nM] | EC50 (GLP1R [2]) [nM]
N#Cc1ccc(COc2cccc(C34CCN(Cc5nc6ccc(C(=O)O)cc6n5C[C@@H]5CCO5)CC3C4)n2)c(F)c1 (single isomer, unassigned) [Compound 1-1-A] | 0.028 | 48.7
N#Cc1ccc(COc2cccc(C34CCN(Cc5nc6ccc(C(=O)O)cc6n5C[C@@H]5CCO5)CC3C4)n2)c(F)c1 (single isomer, unassigned) [Compound 1-1-B] | 0.035 | 84.9
N#Cc1ccc(COc2cccc(C34CCN(Cc5nc6c(F)cc(C(=O)O)cc6n5C[C@@H]5CCO5)CC3C4)n2)c(F)c1 (single isomer, unassigned) [Compound 1-10-A] | 0.009 | 19.3
N#Cc1ccc(COc2cccc(C34CCN(Cc5nc6c(F)cc(C(=O)O)cc6n5C[C@@H]5CCO5)CC3C4)n2)c(F)c1 (single isomer, unassigned) [Compound 1-10-B] | 0.021 | 47.6
N#Cc1ccc(COc2cccc(C34CCN(Cc5nc6ccc(C(=O)O)cc6n5C[C@@H]5CCO5)CC3C4)n2)c(F)c1 (stereo partly drawn) [Compound 1-1, 2-[(6-{6-[(4-cyano-2-fluorophenyl)methoxy]pyridin-2-yl}-3-azabicyclo[4.1.0]heptan-3-yl)methyl]-3-[(2S)-oxetan-2-ylmethyl]-1,3-benzodiazole-5-carboxylic acid] | 0.029 | 80.8
O=C(O)c1ccc2nc(CN3CCC4(c5cccc(OCc6ccc(Cl)cc6F)n5)CC4C3)n(C[C@@H]3CCO3)c2c1 (stereo partly drawn) [Compound 1-5, 2-((6-(6-((4-chloro-2-fluorobenzyl)oxy)pyridin-2-yl)-3-azabicyclo[4.1.0]heptan-3-yl)methyl)-1-(((S)-oxetan-2-yl)methyl)-1H-benzo[d]imidazole-6-carboxylic acid] | 0.03 | 100
O=C(O)c1ccc2nc(CN3CCC4(c5cccc(OCc6ccc(C(F)(F)F)cc6F)n5)CC4C3)n(C[C@@H]3CCO3)c2c1 (stereo partly drawn) [Compound 1-8, 2-{[6-(6-{[2-fluoro-4-(trifluoromethyl)phenyl]methoxy}pyridin-2-yl)-3-azabicyclo[4.1.0]heptan-3-yl]methyl}-3-[(2S)-oxetan-2-ylmethyl]-1,3-benzodiazole-5-carboxylic acid] | 0.035 | 108
N#Cc1ccc(COc2cccc(C34CCN(Cc5nc6c(F)cc(C(=O)O)cc6n5C[C@@H]5CCO5)CC3C4)n2)c(F)c1 (stereo partly drawn) [Compound 1-10, 2-((6-(6-((4-cyano-2-fluorobenzyl)oxy)pyridin-2-yl)-3-azabicyclo[4.1.0]heptan-3-yl)methyl)-4-fluoro-1-(((S)-oxetan-2-yl)methyl)-1H-benzo[d]imidazole-6-carboxylic acid] | 0.047 | 31.2
N#Cc1ccc(COc2cccc(N3C4CCC3CN(Cc3nc5ccc(C(=O)O)cc5n3C[C@@H]3CCO3)C4)n2)c(F)c1 [Compound 2-29, 2-((−8-(6-((4-cyano-2-fluorobenzyl)oxy)pyridin-2-yl)-3,8-diazabicyclo[3.2.1]octan-3-yl)methyl)-1-(((S)-oxetan-2-yl)methyl)-1H-benzo[d]imidazole-6-carboxylic acid] | 0.287 | > 1000
N#Cc1ccc(COc2ccnc(N3C4CCC3CN(Cc3nc5ccc(C(=O)O)cc5n3C[C@@H]3CCO3)C4)c2)c(F)c1 [Compound 2-34, 2-((−8-(4-((4-cyano-2-fluorobenzyl)oxy)pyridin-2-yl)-3,8-diazabicyclo[3.2.1]octan-3-yl)methyl)-1-(((S)-oxetan-2-yl)methyl)-1H-benzo[d]imidazole-6-carboxylic acid] | > 4 | > 1000
N#Cc1ccc(COc2cccc(N3C4CCC3CN(Cc3nc5ccc(C(=O)O)cc5n3C[C@@H]3CCO3)C4)c2)c(F)c1 [Compound 2-35, 2-((−8-(3-((4-cyano-2-fluorobenzyl)oxy)phenyl)-3,8-diazabicyclo[3.2.1]octan-3-yl)methyl)-1-(((S)-oxetan-2-yl)methyl)-1H-benzo[d]imidazole-6-carboxylic acid] | 2.79 | > 1000
